Values of other authors in patent publication US20050113573A1, “Nitroso compounds to treat ischemia” (priority 2003, published 2005).

Experiments:
[1] = test system: intimal proliferation and platelet deposition; details: rabbits, local administration, after vascular arterial balloon injury
platelet adhesion = details: pigs
[2] = 700 stable coronary patients, treated before the angioplasty
rabbit iliac arteries = rabbit iliac arteries after balloon angioplasty
[3] = test system: smooth muscle cell proliferation; details: pigs
femoral arteries = details: hypercholesterolemic mice, prolonged treatment
cerebral infarcts = details: versus vehicle treated animals
[4] = test system: ischemically injured livers; details: severe ischemia/reperfusion
neointimal proliferation = details: rat

S-nitroso-bovine serum albumin: protein adduct of nitric oxide, locally delivered
intimal proliferation and platelet deposition [1]: inhibited intimal proliferation and platelet deposition

N=c1c[n+](N2CCOCC2)[n-]o1 [3-morpholino-sydnonimine]
effect on platelet adhesion (platelet adhesion): antiadhesive effects

CCOC(=O)[N-]c1cn(N2CCOCC2)n[o+]1 [molsidomine]
clinical outcome [2]: no effect on the clinical outcome | long-term angiographic result [2]: modest improvement in the long-term angiographic result | neointimal area (rabbit iliac arteries): significant reduction of the neointimal area | smooth muscle cell proliferation following balloon angioplasty [3]: inhibits smooth muscle cell proliferation following balloon angioplasty

poly thiolated form of bovine serum albumin: poly thiolated form of bovine serum albumin modified to include several S-nitrosothiol groups
intimal proliferation and platelet deposition [1]: inhibited intimal proliferation and platelet deposition

CC(=O)Oc1ccccc1C(=O)Oc1cccc(CO[N+](=O)[O-])c1 [nitric oxide releasing aspirin]
vascular inflammation and apoptosis during vascular remodeling (femoral arteries): reduced the vascular inflammation and promoted apoptosis

N=C(N)NCCC[C@H](N)C(=O)O [L-arginine]
cerebral infarcts (cerebral infarcts): smaller cerebral infarcts than those in vehicle treated animals | liver function, neutrophil infiltration and animal survival after liver ischemia/reperfusion injury [4]: beneficial for the liver after severe ischemia/reperfusion | neointimal area (rabbit iliac arteries): significant reduction of the neointimal area

CC(C(=O)OCCCCO[N+](=O)[O-])c1ccc(-c2ccccc2)c(F)c1 (stereo not shown) [HCT-1026]
neointimal proliferation (neointimal proliferation): reduction in the neointimal proliferation | nitrite/nitrate plasma levels (neointimal proliferation): increase in nitrite/nitrate plasma levels
